In BigSolDB 2.1:

CO[C@@]1(NC(=O)CSCC#N)C(=O)N2C(C(=O)[O-])=C(CSc3nnnn3C)CS[C@@H]21.[Na+]
solubility (mole fraction)
Conditions | in cyclohexane | in ethanol | in ethyl acetate | in isopropanol | in n-butanol | in n-butyl acetate | in n-hexane | in n-pentanol | in n-propanol
278.15 K | 1.31e-06 | 0.000471 | 5.31e-05 | 6.74e-05 | 4.93e-05 | 3.86e-05 | 1.6e-06 | 3.1e-05 | 6.12e-05
283.15 K | 1.75e-06 | 0.000508 | 6.03e-05 | 7.58e-05 | 5.69e-05 | 4.39e-05 | 2.1e-06 | 3.94e-05 | 7.02e-05
288.15 K | 2.1e-06 | 0.000542 | 6.94e-05 | 8.93e-05 | 6.42e-05 | 5.19e-05 | 2.59e-06 | 4.82e-05 | 8.12e-05
293.15 K | 2.5e-06 | 0.000599 | 8.61e-05 | 0.000117 | 8.26e-05 | 6.35e-05 | 2.98e-06 | 5.84e-05 | 0.000105
298.15 K | 3.1e-06 | 0.000685 | 0.000105 | 0.00014 | 9.89e-05 | 7.49e-05 | 3.5e-06 | 6.75e-05 | 0.000125
303.15 K | 3.6e-06 | 0.000818 | 0.000137 | 0.00017 | 0.000124 | 8.96e-05 | 4.1e-06 | 8e-05 | 0.000153
308.15 K | 4.62e-06 | 0.00105 | 0.000168 | 0.00021 | 0.000152 | 0.000109 | 4.92e-06 | 9.75e-05 | 0.000191
313.15 K | 5.69e-06 | 0.00128 | 0.000221 | 0.000286 | 0.000196 | 0.000124 | 6e-06 | 0.000113 | 0.000244
